Laboratory results: ChEMBL document CHEMBL6078713, “Synthesis and mechanistic studies of 4-aminoquinoline-Isatin molecular hybrids and Schiff's bases as promising antimicrobial agents” (Eur J Med Chem, 2025)
Converted amounts (≈) assume the structure as drawn.

Columns and labels:
Escherichia coli [1] = assay: Antibacterial activity against Escherichia coli MTCC 443 assessed as diameter of zone of inhibition at 500 ug/ml by agar disk diffusion method; assay type: functional; details: read-out: DIZ
Enterococcus faecalis [2] = assay: Antibacterial activity against Enterococcus faecalis MTCC 439 assessed as diameter of zone of inhibition at 500 ug/ml by agar disk diffusion method; assay type: functional; details: read-out: DIZ
Bacillus subtilis [3] = assay: Antibacterial activity against Bacillus subtilis MTCC 736 assessed as diameter of zone of inhibition at 500 ug/ml by agar disk diffusion method; assay type: functional; details: read-out: DIZ
Staphylococcus aureus [4] = assay: Antibacterial activity against Staphylococcus aureus MTCC 902 assessed as diameter of zone of inhibition at 500 ug/ml by agar disk diffusion method; assay type: functional; details: read-out: DIZ
Pseudomonas aeruginosa [5] = assay: Antibacterial activity against Pseudomonas aeruginosa MTCC 2453 assessed as diameter of zone of inhibition at 500 ug/ml by agar disk diffusion method; assay type: functional; details: read-out: DIZ
Salmonella typhi [6] = assay: Antibacterial activity against Salmonella typhi assessed as diameter of zone of inhibition at 500 ug/ml by agar disk diffusion method; assay type: functional, Salmonella enterica subsp. enterica serovar Typhi; details: Salmonella enterica, read-out: DIZ
Escherichia coli [7] = assay: Antibacterial activity against Escherichia coli MTCC 443 assessed as inhibition of bacterial growth incubated overnight by serial dilution based spectrophotometer; assay type: functional
Enterococcus faecalis [8] = assay: Antibacterial activity against Enterococcus faecalis MTCC 439 assessed as inhibition of bacterial growth incubated overnight by serial dilution based spectrophotometer; assay type: functional
Bacillus subtilis [9] = assay: Antibacterial activity against Bacillus subtilis MTCC 736 assessed as inhibition of bacterial growth incubated overnight by serial dilution based spectrophotometer; assay type: functional
Staphylococcus aureus [10] = assay: Antibacterial activity against Staphylococcus aureus MTCC 902 assessed as inhibition of bacterial growth incubated overnight by serial dilution based spectrophotometer; assay type: functional
Pseudomonas aeruginosa [11] = assay: Antibacterial activity against Pseudomonas aeruginosa MTCC 2453 assessed as inhibition of bacterial growth incubated overnight by serial dilution based spectrophotometer; assay type: functional
Salmonella typhi [12] = assay: Antibacterial activity against Salmonella typhi assessed as inhibition of bacterial growth incubated overnight by serial dilution based spectrophotometer; assay type: functional, Salmonella enterica subsp. enterica serovar Typhi; details: Salmonella enterica
Escherichia coli [13] = assay: Bactericidal activity against Escherichia coli MTCC 443 assessed as inhibition of bacterial growth incubated overnight; assay type: functional
Enterococcus faecalis [14] = assay: Bactericidal activity against Enterococcus faecalis MTCC 439 assessed as inhibition of bacterial growth incubated overnight; assay type: functional
Bacillus subtilis [15] = assay: Bactericidal activity against Bacillus subtilis MTCC 736 assessed as inhibition of bacterial growth incubated overnight; assay type: functional
Staphylococcus aureus [16] = assay: Bactericidal activity against Staphylococcus aureus MTCC 902 assessed as inhibition of bacterial growth incubated overnight; assay type: functional
Pseudomonas aeruginosa [17] = assay: Bactericidal activity against Pseudomonas aeruginosa MTCC 2453 assessed as inhibition of bacterial growth incubated overnight; assay type: functional
Salmonella typhi [18] = assay: Bactericidal activity against Salmonella typhi assessed as inhibition of bacterial growth incubated overnight; assay type: functional, Salmonella enterica subsp. enterica serovar Typhi; details: Salmonella enterica
Escherichia coli [19] = assay: Ratio of MBC for antibacterial activity against Escherichia coli MTCC 443 to MIC for bactericidal activity against Escherichia coli MTCC 443; assay type: functional
Bacillus subtilis [20] = assay: Ratio of MBC for antibacterial activity against Bacillus subtilis MTCC 736 to MIC for bactericidal activity against Bacillus subtilis MTCC 736; assay type: functional
Staphylococcus aureus [21] = assay: Ratio of MBC for antibacterial activity against Staphylococcus aureus MTCC 902 to MIC for bactericidal activity against Staphylococcus aureus MTCC 902; assay type: functional
Acinetobacter baumannii = assay: Antibacterial activity against Acinetobacter baumannii assessed as inhibition of bacterial growth; assay type: functional

With `Clc1ccc2c(NCC/N=C/c3ccco3)ccnc2c1` the zone of inhibition at 500 µg/mL (Escherichia coli [1]) was 9 mm, the zone of inhibition at 500 µg/mL (Enterococcus faecalis [2]) was 9 mm and the zone of inhibition at 500 µg/mL (Bacillus subtilis [3]) was 10 mm. For the same compound, the zone of inhibition at 500 µg/mL (Staphylococcus aureus [4]) was 10 mm, the zone of inhibition at 500 µg/mL (Pseudomonas aeruginosa [5]) was 9 mm and the zone of inhibition at 500 µg/mL (Salmonella typhi [6]) was 9 mm. For the same compound, the MIC (Escherichia coli [7]) was 512 µg/mL (≈ 1710 µM), the MIC (Enterococcus faecalis [8]) was 512 µg/mL (≈ 1710 µM) and the MIC (Bacillus subtilis [9]) was 256 µg/mL (≈ 854 µM). The MIC (Staphylococcus aureus [10]) was 256 µg/mL (≈ 854 µM), the MIC (Pseudomonas aeruginosa [11]) was 512 µg/mL (≈ 1710 µM) and the MIC (Salmonella typhi [12]) was 512 µg/mL (≈ 1710 µM). For the same compound, the MBC (Escherichia coli [13]) was 512 µg/mL (≈ 1710 µM), the MBC (Enterococcus faecalis [14]) was > 512 µg/mL and the MBC (Bacillus subtilis [15]) was 256 µg/mL (≈ 854 µM). The MBC (Staphylococcus aureus [16]) was 256 µg/mL (≈ 854 µM), the MBC (Pseudomonas aeruginosa [17]) was > 512 µg/mL and the MBC (Salmonella typhi [18]) was > 512 µg/mL. It also gave a Ratio (Escherichia coli [19]) of 1, a Ratio (Bacillus subtilis [20]) of 1 and a Ratio (Staphylococcus aureus [21]) of 1.

`Cc1ccc(N/N=C/c2ccc(CN3CCN(c4ccnc5cc(Cl)ccc45)CC3)cc2)cc1` showed an MIC (Acinetobacter baumannii) of 2 µg/mL (≈ 4.26 µM).
